Test results from patent publication EP4667467A1, “PROTAC DEGRADERS OF MLLT1 AND/OR MLLT3” (Dark Blue Therapeutics Ltd, priority 2024, dated 2025).

Target: T1, MLLT1 (Homo sapiens, UniProt Q03111)
T1 construct: endogenous in cells; host or cells: MV4-11 (ATCC CRL-9591)
T1 sequence (Q03111 1-559): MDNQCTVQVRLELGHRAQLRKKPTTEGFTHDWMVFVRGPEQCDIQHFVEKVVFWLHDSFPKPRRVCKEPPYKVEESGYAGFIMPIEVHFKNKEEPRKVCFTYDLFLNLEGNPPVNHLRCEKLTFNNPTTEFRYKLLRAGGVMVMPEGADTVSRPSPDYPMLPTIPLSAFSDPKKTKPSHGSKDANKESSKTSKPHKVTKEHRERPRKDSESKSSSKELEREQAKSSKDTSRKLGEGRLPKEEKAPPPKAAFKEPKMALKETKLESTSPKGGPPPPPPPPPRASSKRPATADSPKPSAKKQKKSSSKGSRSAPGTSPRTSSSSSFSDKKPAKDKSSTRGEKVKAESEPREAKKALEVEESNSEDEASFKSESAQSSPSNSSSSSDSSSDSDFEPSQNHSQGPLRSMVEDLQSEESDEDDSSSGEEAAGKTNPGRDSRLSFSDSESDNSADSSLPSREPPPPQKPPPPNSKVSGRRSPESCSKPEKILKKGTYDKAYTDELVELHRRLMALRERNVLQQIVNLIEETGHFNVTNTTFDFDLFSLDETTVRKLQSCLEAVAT
Assay: MLLT1 Degradation Assay (JESS automated chemiluminescent detection, MV4-11 cells)
Assay type: cell-based
Details: 24h, with respect to DMSO control; for MLLT1 % Degradation @ 0.01 µM: 0.01 µM (10 nM) test compound; for MLLT1 % Degradation @ 0.1 µM: 0.1 µM (100 nM) test compound; for MLLT 1 % Degradation @ 1 µM: 1 µM (1000 nM) test compound
Procedure: MLLT1 degradation efficacy of compounds were tested in an automated chemiluminescent detection system (JESS, Cat# 004-650). […] 10 mM DMSO stocks were prepared, and cells were treated with three concentrations of test compounds viz. 1000, 100 and 10 nM at a final DMSO concentration of 0.1% and incubated for 24h at 37°C, 5% CO2. […] Post run, data were analysed using "Compass for SW" software for chemiluminescent detection. The peak area for each band was used for the calculation of MLLT1 degradation with respect to DMSO control. Data is shown as "MLLT1 % degradation".

| Structure (SMILES) | MLLT1 % Degradation @ 0.01 µM | MLLT1 % Degradation @ 0.1 µM | MLLT 1 % Degradation @ 1 µM |
| --- | --- | --- | --- |
| CCN1CCC[C@@H]1c1cc2cnc(NC(=O)c3ccc(N4CCC(CC#Cc5cccc6c5CN(C5CCC(=O)NC5=O)C6=O)CC4)nc3)cc2[nH]1 (stereo partly drawn) [Example 73, 6-(4-(3-(2-(2,6-dioxopiperidin-3-yl)-1-oxoisoindolin-4-yl)prop-2-yn-1-yl)piperidin-1-yl)-N-(2-((R)-1-ethylpyrrolidin-2-yl)-1H-pyrrolo[3,2-c]pyridin-6-yl)nicotinamide] | B (Category B: 50% ≤ B < 75% degradation) | A (Category A: A ≥ 75% degradation) | B (Category B: 50% ≤ B < 75% degradation) |
| CN1CCC[C@@H]1c1cc2cnc(NC(=O)c3ccc(CCCC#Cc4ccc(C(=O)N[C@H]5CCC(=O)NC5=O)nc4)cc3)cc2[nH]1 [Example 11, N-((S)-2,6-dioxopiperidin-3-yl)-5-(5-(4-((2-((R)-1-methylpyrrolidin-2-yl)-1H-pyrrolo[3,2-c]pyridin-6-yl)carbamoyl)phenyl)pent-1-yn-1-yl)picolinamide] | D (Category D: D < 25% degradation) | C (Category C: 25% ≤ C < 50% degradation) | B (Category B: 50% ≤ B < 75% degradation) |
| CN1CCC[C@@H]1c1cc2cnc(NC(=O)c3ccc(N4CCC(N5CCN(c6cccc7c6C(=O)N(C6CCC(=O)NC6=O)C7=O)CC5)CC4)nc3)cc2[nH]1 (stereo partly drawn) [Example 64, 6-(4-(4-(2-(2,6-dioxopiperidin-3-yl)-1,3-dioxoisoindolin-4-yl)piperazin-1-yl)piperidin-1-yl)-N-(2-((R)-1-methylpyrrolidin-2-yl)-1H-pyrrolo[3,2-c]pyridin-6-yl)nicotinamide] | B (Category B: 50% ≤ B < 75% degradation) | B (Category B: 50% ≤ B < 75% degradation) | A (Category A: A ≥ 75% degradation) |
| CN1CCC[C@@H]1c1cc2cnc(NC(=O)c3ccc(OCC#Cc4cccc5c4CN(C4CCC(=O)NC4=O)C5=O)nc3)cc2[nH]1 (stereo partly drawn) [Example 2, 6-((3-(2-(2,6-dioxopiperidin-3-yl)-1-oxoisoindolin-4-yl)prop-2-yn-1-yl)oxy)-N-(2-((R)-1-methylpyrrolidin-2-yl)-1H-pyrrolo[3,2-c]pyridin-6-yl)nicotinamide] | A (Category A: A ≥ 75% degradation) | A (Category A: A ≥ 75% degradation) | A (Category A: A ≥ 75% degradation) |
| CN1CCC[C@@H]1c1cc2cnc(NC(=O)CCCC3CCN(c4cccc5c4C(=O)N(C4CCC(=O)NC4=O)C5=O)CC3)cc2[nH]1 (stereo partly drawn) [Example 41, 4-(1-(2-(2,6-dioxopiperidin-3-yl)-1,3-dioxoisoindolin-4-yl)piperidin-4-yl)-N-(2-((R)-1-methylpyrrolidin-2-yl)-1H-pyrrolo[3,2-c]pyridin-6-yl)butanamide] | B (Category B: 50% ≤ B < 75% degradation) | B (Category B: 50% ≤ B < 75% degradation) | A (Category A: A ≥ 75% degradation) |
| CN1CCC[C@H]1c1cc2cnc(NC(=O)c3ccc(CCCNc4cccc5c4C(=O)N(C4CCC(=O)NC4=O)C5=O)cc3)cc2[nH]1 (stereo partly drawn) [Example 37, 4-(3-{[2-(2,6-dioxopiperidin-3-yl)-1,3-dioxoisoindol-4-yl]amino}propyl)-N-{2-[(2S)-1-methylpyrrolidin-2-yl]-1H-pyrrolo[3,2-c]pyridin-6-yl}benzamide] | B (Category B: 50% ≤ B < 75% degradation) | A (Category A: A ≥ 75% degradation) | A (Category A: A ≥ 75% degradation) |
| CN1CCC[C@@H]1c1cc2cnc(NC(=O)c3cnc(N4CCC(C#Cc5cccc6c5CN(C5CCC(=O)NC5=O)C6=O)CC4)nc3)cc2[nH]1 (stereo partly drawn) [Example 65, 2-(4-((2-(2,6-dioxopiperidin-3-yl)-1-oxoisoindolin-4-yl)ethynyl)piperidin-1-yl)-N-(2-((R)-1-methylpyrrolidin-2-yl)-1H-pyrrolo[3,2-c]pyridin-6-yl)pyrimidine-5-carboxamide] | B (Category B: 50% ≤ B < 75% degradation) | B (Category B: 50% ≤ B < 75% degradation) | B (Category B: 50% ≤ B < 75% degradation) |
| CN1CCC[C@@H]1c1cc2cnc(NC(=O)c3ccc(-c4cnn(CCCCC#Cc5cccc6c5CN(C5CCC(=O)NC5=O)C6=O)c4)cc3)cc2[nH]1 (stereo partly drawn) [Example 59, 4-(1-(6-(2-(2,6-dioxopiperidin-3-yl)-1-oxoisoindolin-4-yl)hex-5-yn-1-yl)-1H-pyrazol-4-yl)-N-(2-((R)-1-methylpyrrolidin-2-yl)-1H-pyrrolo[3,2-c]pyridin-6-yl)benzamide] | A (Category A: A ≥ 75% degradation) | A (Category A: A ≥ 75% degradation) | B (Category B: 50% ≤ B < 75% degradation) |
| CN1CCC[C@@H]1c1cc2cnc(NC(=O)c3cccc(OCCCCCCCC#Cc4cccc5c4C(=O)N(C4CCC(=O)NC4=O)C5=O)c3)cc2[nH]1 (stereo partly drawn) [Example 26, 3-((9-(2-(2,6-dioxopiperidin-3-yl)-1,3-dioxoisoindolin-4-yl)non-8-yn-1-yl)oxy)-N-(2-((R)-1-methylpyrrolidin-2-yl)-1H-pyrrolo[3,2-c]pyridin-6-yl)benzamide] | D (Category D: D < 25% degradation) | D (Category D: D < 25% degradation) | C (Category C: 25% ≤ C < 50% degradation) |
| CCN1CCC[C@@H]1c1cc2cnc(NC(=O)c3ccc(CCCCC#Cc4cccc5c4CN(C4CCC(=O)NC4=O)C5=O)nc3)cc2[nH]1 (stereo partly drawn) [Example 74, 6-(6-(2-(2,6-dioxopiperidin-3-yl)-1-oxoisoindolin-4-yl)hex-5-yn-1-yl)-N-(2-((R)-1-ethylpyrrolidin-2-yl)-1H-pyrrolo [3,2-c]pyridin-6-yl) nicotinamide] | B (Category B: 50% ≤ B < 75% degradation) | B (Category B: 50% ≤ B < 75% degradation) | B (Category B: 50% ≤ B < 75% degradation) |
| CN1CCC[C@@H]1c1cc2cnc(NC(=O)N3CCC(CCC#Cc4cccc5c4CN(C4CCC(=O)NC4=O)C5=O)CC3)cc2[nH]1 (stereo partly drawn) [Example 1, 4-(4-(2-(2,6-dioxopiperidin-3-yl)-1-oxoisoindolin-4-yl)but-3-yn-1-yl)-N-(2-((R)-1-methylpyrrolidin-2-yl)-1H-pyrrolo[3,2-c]pyridin-6-yl)piperidine-1-carboxamide] | C (Category C: 25% ≤ C < 50% degradation) | C (Category C: 25% ≤ C < 50% degradation) | C (Category C: 25% ≤ C < 50% degradation) |
| CN1CCC[C@@H]1c1cc2cnc(NC(=O)CCCCC3CCN(c4cccc5c4C(=O)N(C4CCC(=O)NC4=O)C5=O)CC3)cc2[nH]1 (stereo partly drawn) [Example 42, 5-(1-(2-(2,6-Dioxopiperidin-3-yl)-1,3-dioxoisoindolin-4-yl)piperidin-4-yl)-N-(2-((R)-1-methylpyrrolidin-2-yl)-1H-pyrrolo[3,2-c]pyridin-6-yl)pentanamide] | – | B (Category B: 50% ≤ B < 75% degradation) | B (Category B: 50% ≤ B < 75% degradation) |
| CN1CCC[C@@H]1c1cc2cnc(NC(=O)CCCCCCNc3ccc4c(c3)C(=O)N(C3CCC(=O)NC3=O)C4=O)cc2[nH]1 (stereo partly drawn) [Example 27, 7-{[2-(2,6-dioxopiperidin-3-yl)-1,3-dioxoisoindol-5-yl]amino}-N-{2-[(2R)-1-methylpyrrolidin-2-yl]-1H-pyrrolo[3,2-c]pyridin-6-yl}heptanamide] | C (Category C: 25% ≤ C < 50% degradation) | C (Category C: 25% ≤ C < 50% degradation) | B (Category B: 50% ≤ B < 75% degradation) |
| CN1CCC[C@@H]1c1cc2cnc(NC(=O)c3ccc(CC4CCN(c5cccc6c5C(=O)N(C5CCC(=O)NC5=O)C6=O)CC4)cc3)cc2[nH]1 (stereo partly drawn) [Example 3, 4-((1-(2-(2,6-dioxopiperidin-3-yl)-1,3-dioxoisoindolin-4-yl)piperidin-4-yl)methyl)-N-(2-((R)-1-methylpyrrolidin-2-yl)-1H-pyrrolo[3,2-c]pyridin-6-yl)benzamide] | C (Category C: 25% ≤ C < 50% degradation) | A (Category A: A ≥ 75% degradation) | A (Category A: A ≥ 75% degradation) |
